The values below come from patent US11149031B2, “Substituted N-(3-fluoropropyl)-pyrrolidine compounds, processes for their preparation and therapeutic uses thereof” (SANOFI, priority 2016, dated 2021).

The target in experiment [1] is His6-ERα298-554 WT (ERα ligand-binding domain) (Homo sapiens (Human), UniProt P03372). Briefly: Test A: biochemical antagonist activity, LanthaScreen TR-FRET ERα coactivator assay, WT. The following applies: read-out: Antagonism WT IC50. In a few lines:
(§1)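 IC50 values come from a 4-parameter logistic fit of the 520:495 nm TR-FRET ratio after overnight room-temperature incubation. The mix held 0.5 nM ERα 298–554 LBD, Tb-labelled anti-His6 antibody, 250 nM PGC1a peptide and 3 nM or 10 nM estradiol, pH 7.4 phosphate buffer with DTT.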

The target of experiment [2] is His6-ERα298-554 D538G mutant (ERα ligand-binding domain) (Homo sapiens (Human), UniProt P03372, D538G). Briefly: Test A: biochemical antagonist activity, LanthaScreen TR-FRET ERα coactivator assay, D538G mutant. The following applies: read-out: Antagonism D538G IC50. In a few lines:
as §1
For orientation: Time-resolved FRET reads energy transfer from a long-lived donor to a nearby acceptor.

The target of experiment [3] is His6-ERα298-554 Y537S mutant (ERα ligand-binding domain) (Homo sapiens (Human), UniProt P03372, Y537S). Briefly: Test A: biochemical antagonist activity, LanthaScreen TR-FRET ERα coactivator assay, Y537S mutant. The following applies: read-out: Antagonism Y537S IC50. In a few lines:
as §1

Experiment [4] concerns MCF7 cells (breast tumor cells) WT. Briefly: Test B: cell proliferation/viability assay (CellTiter-Glo) on MCF7 WT. The following applies: Homo sapiens, MCF7, 168 h, 7 days of compound exposure. Format: cell-based. In a few lines: (§2)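 Mutant lines are MCF7 transfected with ER mutants and selected for estradiol-independent growth. Cells in phenol red-free MEM with 5% charcoal-stripped FBS received 9-point 1:5 dilutions (3-0.000001 μM) for 7 days; CellTiter-Glo luminescence, % viability relative to untreated after background subtraction.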
Background: In ATP-based viability assays light output follows the ATP content of the culture.

Experiment [5] concerns MCF7 cells expressing mutant estrogen receptor Tyr 537 Ser. Briefly: Test B: cell proliferation/viability assay (CellTiter-Glo) on MCF7 Tyr 537 Ser mutant. Format: cell-based. The following applies: Homo sapiens, MCF7, 168 h, MCF7 cells expressing ER Tyr 537 Ser mutant, 7 days of compound exposure, read-out: proliferation MCF7 Y537S IC50. In a few lines: as §2
Experiment [6] relates to MCF7 cells expressing mutant estrogen receptor Asp 538 Gly. Nature of the experiment: Test B: cell proliferation/viability assay (CellTiter-Glo) on MCF7 Asp 538 Gly mutant. The experiment is classed as cell-based. As to conditions: Homo sapiens, MCF7, 168 h, MCF7 cells expressing ER Asp 538 Gly mutant, 7 days of compound exposure, read-out: proliferation MCF7 D538G IC50. The essentials:
as §2

The next experiment deals with ERα in MCF7 cells (Homo sapiens (Human), UniProt P03372). Briefly: Test C: estrogen receptor degradation activity, ERα in cell western assay in MCF7 cells. The following applies: for DC50: 4 hours post compound addition, ERα in cell western, read-out: Degradation IC50; for % Degradation at 3 μM: 4 hours, relative to fulvestrant. The experiment is classed as cell-based. The essentials: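 MCF7 cells in phenol-red-free medium with 5% charcoal-stripped FBS received compound (9-point 1:5, 3-0.000018 μM) for 4 h, then were fixed. ERα immunostained (Alexa 488) and normalised to DNA (Syto-64), read as integrated fluorescence on an Acumen scanner.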
ERα in MCF7 cells, sequence (P03372 whole entry): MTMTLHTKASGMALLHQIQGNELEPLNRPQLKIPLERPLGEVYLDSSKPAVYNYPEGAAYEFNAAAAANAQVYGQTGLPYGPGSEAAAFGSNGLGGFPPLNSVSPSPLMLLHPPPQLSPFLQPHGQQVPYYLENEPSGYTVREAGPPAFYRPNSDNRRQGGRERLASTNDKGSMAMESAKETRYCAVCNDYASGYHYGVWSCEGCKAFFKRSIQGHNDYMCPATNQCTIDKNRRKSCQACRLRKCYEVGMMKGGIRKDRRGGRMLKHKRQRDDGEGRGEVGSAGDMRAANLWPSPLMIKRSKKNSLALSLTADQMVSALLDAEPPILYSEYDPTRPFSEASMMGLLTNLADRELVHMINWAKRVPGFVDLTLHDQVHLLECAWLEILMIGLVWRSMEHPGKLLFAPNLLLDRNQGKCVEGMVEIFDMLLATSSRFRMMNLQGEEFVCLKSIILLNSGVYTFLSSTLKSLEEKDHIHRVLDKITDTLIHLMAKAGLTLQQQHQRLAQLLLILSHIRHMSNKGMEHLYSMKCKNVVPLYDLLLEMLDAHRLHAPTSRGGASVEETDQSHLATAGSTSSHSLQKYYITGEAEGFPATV

Setting [7] is: asterisk (*): protocol using 10 nM estradiol.

Where two headings read alike, the source gives them in different places.

His6-ERα298-554 Y537S mutant (ERα ligand-binding domain), sequence (P03372 298-554 Y537S): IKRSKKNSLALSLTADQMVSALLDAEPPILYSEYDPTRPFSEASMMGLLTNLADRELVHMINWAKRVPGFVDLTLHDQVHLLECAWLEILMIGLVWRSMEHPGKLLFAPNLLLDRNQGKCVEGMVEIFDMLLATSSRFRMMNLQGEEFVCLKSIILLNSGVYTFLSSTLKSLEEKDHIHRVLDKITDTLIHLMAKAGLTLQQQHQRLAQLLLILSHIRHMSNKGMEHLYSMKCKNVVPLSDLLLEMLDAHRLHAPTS
His6-ERα298-554 WT (ERα ligand-binding domain), sequence (P03372 298-554): as the sequence (P03372 298-554 Y537S) above, with S240Y counted along it
His6-ERα298-554 D538G mutant (ERα ligand-binding domain), sequence (P03372 298-554 D538G): as the sequence (P03372 298-554 Y537S) above, with S240Y, D241G counted along it

Regarding `Oc1ccc(C2Sc3cc(O)ccc3OC2c2ccc(O[C@H]3CCN(CCCF)C3)cc2)cc1` (stereo partly drawn) [Example 258, 2-[4-[(3S)-1-(3-fluoropropyl)pyrrolidin-3-yl]oxyphenyl]-3-(4-hydroxyphenyl)-2,3-dihydro-1,4-benzoxathiin-6-ol], the IC50 in experiment [1] (setting [7]) is 203 nM; in experiment [2] (setting [7]) it was > 4000 nM; in experiment [3] (setting [7]), 2420 nM; in experiment [4], 6 nM; in experiment [5], 17 nM; in experiment [6], 1 nM. Moreover, the DC50 at ERα in MCF7 cells was 5 nM. The “% Degradation at 3 μM” value at ERα in MCF7 cells was found to be 77%.
As for `CCOc1ccc(C2=C(c3ccc(O[C@H]4CCN(CCCF)C4)cc3)c3ccc(O)cc3OCC2)c(C)c1` [Example 119, 4-(4-ethoxy-2-methyl-phenyl)-5-[4-[(3S)-1-(3-fluoropropyl)pyrrolidin-3-yl]oxyphenyl]-2,3-dihydro-1-benzoxepin-8-ol], the IC50 in experiment [1] (protocol with 3 nM estradiol) worked out at 2 nM; in experiment [2] (protocol with 3 nM estradiol), 10 nM; in experiment [3] (protocol with 3 nM estradiol), 6 nM; in experiment [4], 0.6 nM; in experiment [5], 5 nM; in experiment [6] it was 0.5 nM. The DC50 at ERα in MCF7 cells turned out to be 1 nM. For the same molecule, the “% Degradation at 3 μM” value on ERα in MCF7 cells is recorded as 91%.
Take `CC(C)(C)c1ccc(C2=C(c3ccc(O[C@H]4CCN(CCCF)C4)cc3)c3ccc(O)cc3SC2)cc1` [Example 52, 3-(4-tert-butylphenyl)-4-[4-[(3S)-1-(3-fluoropropyl)pyrrolidin-3-yl]oxyphenyl]-2H-thiochromen-7-ol]: the IC50 is 351 nM in experiment [1] (setting [7]); > 4000 nM in experiment [2] (setting [7]); 2910 nM in experiment [3] (setting [7]); 2 nM in experiment [4]; 41 nM in experiment [5]; 3 nM in experiment [6]. The DC50 at ERα in MCF7 cells stood at 1 nM. Moreover, on ERα in MCF7 cells, the “% Degradation at 3 μM” value was 84%.
With `Oc1ccc2c(c1)SCC(c1ccc(CF)cc1)=C2c1ccc(O[C@H]2CCN(CCCF)C2)cc1` [Example 61, 3-[4-(fluoromethyl)phenyl]-4-[4-[(3S)-1-(3-fluoropropyl)pyrrolidin-3-yl]oxyphenyl]-2H-thiochromen-7-ol], the IC50 was determined as 37 nM in experiment [1] (setting [7]); 686 nM in experiment [2] (setting [7]); 437 nM in experiment [3] (setting [7]); 2 nM in experiment [4]; 17 nM in experiment [5]; 0.6 nM in experiment [6]. Also, at ERα in MCF7 cells, the DC50 amounted to 0.2 nM. For the same molecule, the “% Degradation at 3 μM” value at ERα in MCF7 cells is recorded as 82%.
For `C[C@@H]1Cc2cc(C3=C(c4ccc(O[C@H]5CCN(CCCF)C5)cc4)c4ccc(O)cc4SCC3)ccc2O1` [Example 202, 5-[4-[(3S)-1-(3-fluoropropyl)pyrrolidin-3-yl]oxyphenyl]-4-[(2R)-2-methyl-2,3-dihydrobenzofuran-5-yl]-2,3-dihydro-1-benzothiepin-8-ol], the IC50 in experiment [1] (setting [7]) turned out to be 1 nM; in experiment [2] (setting [7]) it was 15 nM; in experiment [3] (setting [7]), 11 nM; in experiment [4] it was 0.4 nM; in experiment [5], 6 nM; in experiment [6], 1 nM. Also, the DC50 on ERα in MCF7 cells worked out at 0.5 nM. Further, on ERα in MCF7 cells, the “% Degradation at 3 μM” value was determined as 89%.
As to `Oc1ccc2c(c1Cl)OCCC(c1cccc3[nH]ccc13)=C2c1ccc(O[C@H]2CCN(CCCF)C2)cc1` [Example 124, 9-chloro-5-[4-[(3S)-1-(3-fluoropropyl)pyrrolidin-3-yl]oxyphenyl]-4-(1H-indol-4-yl)-2,3-dihydro-1-benzoxepin-8-ol], the IC50 in experiment [1] (protocol with 3 nM estradiol) was found to be 22 nM; in experiment [2] (protocol with 3 nM estradiol) it was 849 nM; in experiment [3] (protocol with 3 nM estradiol), 1240 nM; in experiment [4], 8 nM; in experiment [5], 165 nM; in experiment [6] it was 33 nM. At ERα in MCF7 cells, the DC50 stood at 5 nM. Besides, at ERα in MCF7 cells, the “% Degradation at 3 μM” value is reported as 76%.
Turning to `CCOc1cc(C2=C(c3ccc(O[C@H]4CCN(CCCF)C4)cc3)c3ccc(O)cc3SCC2)ccc1F` [Example 195, 4-(3-ethoxy-4-fluoro-phenyl)-5-[4-[(3S)-1-(3-fluoropropyl)pyrrolidin-3-yl]oxyphenyl]-2,3-dihydro-1-benzothiepin-8-ol], the IC50 in experiment [1] (setting [7]) was 14 nM; in experiment [2] (setting [7]), 335 nM; in experiment [3] (setting [7]) it was 170 nM; in experiment [4], 0.3 nM; in experiment [5], 3 nM; in experiment [6], 0.7 nM. Further, on ERα in MCF7 cells, the DC50 is 0.4 nM. In addition, at ERα in MCF7 cells, the “% Degradation at 3 μM” value is 97%.
For the molecule `O=C1COc2ccc(C3=C(c4ccc(O[C@H]5CCN(CCCF)C5)cc4)c4ccc(O)cc4SC3)cc2N1` [Example 38, 6-[4-[4-[(3S)-1-(3-fluoropropyl)pyrrolidin-3-yl]oxyphenyl]-7-hydroxy-2H-thiochromen-3-yl]-4H-1,4-benzoxazin-3-one], the IC50 in experiment [1] (setting [7]) was 604 nM; in experiment [2] (setting [7]), > 4000 nM; in experiment [3] (setting [7]), 3710 nM; in experiment [4], 12 nM; in experiment [5], > 999 nM; in experiment [6], 16 nM. Further, the DC50 on ERα in MCF7 cells came out at 12 nM. In addition, the “% Degradation at 3 μM” value at ERα in MCF7 cells was 86%.
In the case of `Oc1ccc2c(c1)SCCC(c1ccc(OC(F)F)c(F)c1)=C2c1ccc(O[C@H]2CCN(CCCF)C2)nc1` [Example 207, 4-[4-(difluoromethoxy)-3-fluoro-phenyl]-5-[6-[(3S)-1-(3-fluoropropyl)pyrrolidin-3-yl]oxy-3-pyridyl]-2,3-dihydro-1-benzothiepin-8-ol], the IC50 in experiment [1] (setting [7]) is 2 nM; in experiment [2] (setting [7]) it was 9 nM; in experiment [3] (setting [7]) it was 6 nM; in experiment [4] it was 0.1 nM; in experiment [5] it was 2 nM; in experiment [6] it was 0.3 nM. Moreover, the DC50 at ERα in MCF7 cells worked out at 0.5 nM. Moreover, on ERα in MCF7 cells, the “% Degradation at 3 μM” value was determined as 85%.
For `Oc1ccc2c(c1)OCC(c1ccc(Cl)cc1Cl)=C2c1ccc(O[C@H]2CCN(CCCF)C2)cc1` [Example 81, 3-(2,4-dichlorophenyl)-4-[4-[(3S)-1-(3-fluoropropyl)pyrrolidin-3-yl]oxyphenyl]-2H-chromen-7-ol], the IC50 in experiment [1] (setting [7]) is 520 nM; in experiment [2] (setting [7]), > 4000 nM; in experiment [3] (setting [7]), > 4000 nM; in experiment [4], 18 nM; in experiment [5], 17 nM; in experiment [6], 3.5 nM. Further, the DC50 at ERα in MCF7 cells amounted to 7 nM. At ERα in MCF7 cells, the “% Degradation at 3 μM” value stood at 77%.
On to `CCOc1nccc(C2=C(c3ccc(O[C@H]4CCN(CCCF)C4)cc3)c3ccc(O)cc3SC2)c1Cl` [Example 53, 3-(3-chloro-2-ethoxy-4-pyridyl)-4-[4-[(3S)-1-(3-fluoropropyl)pyrrolidin-3-yl]oxyphenyl]-2H-thiochromen-7-ol], for which the IC50 in experiment [1] (setting [7]) came to 2 nM; in experiment [2] (setting [7]), 36 nM; in experiment [3] (setting [7]), 25 nM; in experiment [4], 0.2 nM; in experiment [5] it was 5 nM; in experiment [6], 0.2 nM. On ERα in MCF7 cells, the DC50 was 0.2 nM. Besides, the “% Degradation at 3 μM” value at ERα in MCF7 cells came out at 84%.
`Oc1ccc2c(c1)CCCC(c1ccc(Cl)c(F)c1)=C2c1cnc(O[C@H]2CCN(CCCF)C2)cn1` [Example 243, 6-(4-chloro-3-fluoro-phenyl)-5-[5-[(3S)-1-(3-fluoropropyl)pyrrolidin-3-yl]oxypyrazin-2-yl]-8,9-dihydro-7H-benzo[7]annulen-2-ol]: the IC50 in experiment [1] (setting [7]) came to 12 nM; in experiment [2] (setting [7]), 386 nM; in experiment [3] (setting [7]), 179 nM; in experiment [4], 0.2 nM; in experiment [5], 3 nM; in experiment [6], 0.5 nM. Further, on ERα in MCF7 cells, the DC50 worked out at 0.3 nM. Also, the “% Degradation at 3 μM” value at ERα in MCF7 cells was determined as 91%.
